Data on 74 substances can be found in paper PMC4865845, “A human genome-wide loss-of-function screen identifies effective chikungunya antiviral drugs” (Nature Communications, 2016).

This data set deals with CHIKV. Format: cell-based, chikungunya virus.
As to “s11587 (sense CAGGTCACATTGTTCCTGA; chemistry not given here)”, the Score_si2 turned out to be 1.27. Take “Hs_FLJ31164_4 (sense GAGCAACTTGCTGGATGTGAA; chemistry not given here)”: the Score_si2 worked out at 1.07. On the same count and under the same terms, the result for “s18239 (CGGTGACTCTTTATGCACA; chemistry not given here)” reads 1.37. “Hs_ROCK1_3 (sense CAGATAAAGATCACACTGTTA; chemistry not given here)” displayed a Score_si3 of 0.95. Same read-out and setting: the result for “Hs_CAMKK2_4 (sense ACAGAAAGGGCTTGAAATTTA; chemistry not given here)” reads 1.25. “s50143 (sense AAATAAATCTGGTGCATTA; chemistry not given here) [reference compound]” came in with a Score_si4 of -0.41.

For “s10857 (sense GAATCCGGTTTGGAATATA; chemistry not given here)”, the Score_si4 was -0.29.

For “s35017 (AAGACAGGCTGATCAACTA; chemistry not given here)”, the Score_si3 was 0.94. Regarding “Hs_CLCN6_2 (sense CCGGTGAATGTTATTGGAATT; chemistry not given here)”, the Score_si3 was -0.01. As for “Hs_APEX2_3 (AGGGCCCTTCATCGATAGCTA; chemistry not given here) [reference compound]”, the Score_si1 was -3.29. “s12245 (sense CCATCAGGACCACTATTAA; chemistry not given here)” registered a Score_si4 of 0.57.

As for “s8004 (sense GTGGAGGAATGGTTCAATA; chemistry not given here)”, the Score_si3 is given as 0.87. “Hs_PITRM1_2 (CCGGTGAATTACGTGGGTGAA; chemistry not given here) [reference compound]” showed a Score_si4 of -0.68.

Consider “Hs_PP3856_1 (CTGGACAGTGGTGACCTGCTA; chemistry not given here)”, for which the Score_si2 stood at 1.53. For “s31192 (GGAAGGACTTACTACTACA; chemistry not given here)”, the Score_si3 is reported as 1.79.

“s26229 (sense GGTGGTATACGGGACCAAT; chemistry not given here)”: the Score_si3 is recorded as -0.1. In turn, “Hs_BCHE_2 (CGGGTTGAAAGAGTTATTGTA; chemistry not given here)” gave a Score_si2 of 0.74. Still for that read-out and setting: the result for “s37917 (GCCTCAGCTCAAACTCAAA; chemistry not given here)” reads 1.72; that for “Hs_CAMKK2_7 (sense CTAGCTGATTGTTGTGGTCAA; chemistry not given here)”, 1.31. “s9031 (CGACGACAGCTACTGGTTT; chemistry not given here)” came in with a Score_si4 of 0.9. On the same count and under the same terms, the result for “Hs_NPEPL1_1 (CTGATTTATAGGGCAAGAGAA; chemistry not given here)” reads 1.11. For “Hs_LTBP3_1 (CCGGGACAGATCTCAGCAGAA; chemistry not given here)”, the Score_si2 is reported as 1.9. Regarding “s37714 (GCTCCTCAAAGGATATGAA; chemistry not given here)”, the Score_si4 is listed as -0.71. In the case of “s28294 (sense CATTCTGTGGTGAAACATT; chemistry not given here)”, the Score_si1 is on record as 1.28.

With “s34679 (GGAAAGAAGGGAATGAGTT; chemistry not given here)”, the Score_si2 was determined as 1.1. For the substance “s38779 (CCAAGATGACTGTGAATAA; chemistry not given here)”, the Score_si3 is listed as 0.42. “Hs_HSPE1_6 (sense GAGGGAGTAATGGCAGGACAA; chemistry not given here)” displayed a Score_si1 of 2.37.

Regarding “Hs_PCQAP_1 (CCGCATGATCAACAAGATCGA; chemistry not given here) [reference compound]”, the Score_si1 is -1.12. Substance “Hs_SDFR1_10 (sense ACAGGTATATACAGCATATAA; chemistry not given here) [reference compound]” yielded a Score_si2 of -2.32.

In turn, “s195299 (sense ACACATATGTGATCAAGCT; chemistry not given here)” gave a Score_si4 of 0.72. “s13805 (sense TCACTGTGCTGATCGGGAA; chemistry not given here)” registered a Score_si3 of 0.78. With “Hs_POLR1A_2 (TCGGGAGGAATTAGAACAATA; chemistry not given here)”, the Score_si2 turned out to be 1.23. Substance “s29017 (GTCAGTACTTTATCTCGTT; chemistry not given here)” showed a Score_si2 of 1.25. On the same count and under the same terms, the result for “Hs_ASH2L_1 (CCGAGTAACTAACTTATTTAA; chemistry not given here)” reads 1.07. As for “Hs_SSP411_1 (sense ATGGCCTTGCATACCCTGAAA; chemistry not given here)”, the Score_si1 is reported as 2.33. Substance “s38777 (GGCTCAAACTGGGAGTCAA; chemistry not given here)” gave a Score_si2 of 1.07. Substance “Hs_INTS8_2 (sense CTGGGAATTAAAGACAATTTA; chemistry not given here)” came in with a Score_si2 of 2.65. In turn, “s2665 (sense GCTTCAGGATGTGCCCAAA; chemistry not given here)” came in with a Score_si3 of 0.58. In turn, “Hs_CLTC_11 (sense ACAGTTCTACTTAGAATTCAA; chemistry not given here)” had a Score_si1 of 2.42. “s49212 (sense GATCGTTCCTGGGTGTTCA; chemistry not given here)”: the Score_si2 was determined as 0.94. Substance “s16999 (GCACGTAACAGCTAAGGAA; chemistry not given here)” displayed a Score_si2 of 1.29. On the same count and under the same terms, the result for “Hs_RAB3D_4 (sense AAGCAAGTTCTTGCCCAATCA; chemistry not given here)” reads 1.56. On to “Hs_UMPS_1 (CACCGCATTGATACTATAATA; chemistry not given here)”, for which the Score_si4 is listed as 1.35. In turn, “Hs_COPG_2 (sense CAGGAAAGGGACATTGTAAAT; chemistry not given here)” registered a Score_si2 of 2.25. “Hs_NDUFA2_2 (TCCACTGAGGATTAAGAGCAA; chemistry not given here)”: the Score_si1 is given as 2.51. The same measure, in the same setting: the result for “s17187 (GGATTGACCTCACCCAGAA; chemistry not given here)” reads 2.03. “s21625 (sense GCAGCCTTGTTGCTCTTAA; chemistry not given here)” gave a Score_si2 of 1.37. The substance “s33489 (GGACTTCTGAAAATTCGCA; chemistry not given here)” yielded a Score_si2 of 1.9. On to “s29269 (CAGTTTACCGAGGAAGAAA; chemistry not given here)”, for which the Score_si3 is 1.26. Take “s18079 (CAATAGTAAAGGGATATAA; chemistry not given here) [reference compound]”: the Score_si4 is reported as -0.28. In turn, “s19090 (sense GGATCTGACTATTCGCACT; chemistry not given here) [reference compound]” displayed a Score_si4 of 0.04. Same read-out and setting: the result for “s3625 (CAGTGAAGCTAGAATCTCA; chemistry not given here)” reads 1.54.

“s10395 (sense GGACGACTTCTTTAAGTCA; chemistry not given here)” showed a Score_si3 of 1.58. Consider “Hs_KRTHA2_1 (sense CAGATGGAGGAGCTTAACCAA; chemistry not given here)”, for which the Score_si1 stood at 1.15. Same read-out and setting: the result for “Hs_SDFR1_8 (sense CAGGTATATACAGCATATAAA; chemistry not given here) [reference compound]” reads -2.41. “Hs_RAD51L3_4 (sense CCCAGTAACGCCTGCTGTTTA; chemistry not given here)” showed a Score_si4 of 0.33. On the same count and under the same terms, the result for “s28991 (GAAGAGGTTTTGGAGTATA; chemistry not given here)” reads 0.22. Substance “Hs_UMPS_4 (AAGCTTCTCAGGCTTATGCAA; chemistry not given here)” had a Score_si3 of 1.59. “Hs_SULF1_3 (sense CTGGTGTTTGCGTACAGTTAA; chemistry not given here) [reference compound]” yielded a Score_si4 of -0.77. With “Hs_NRD1_3 (CAAGCAATACCGATACATCAA; chemistry not given here)”, the Score_si4 came to 0.87. The substance “Hs_AQP3_2 (CTGGATGTACATACATAAGTA; chemistry not given here)” yielded a Score_si3 of 1.09. Still for that read-out and setting: the result for “Hs_LBX1_1 (sense CACCAGATCTATGAATTGGAA; chemistry not given here)” reads 1.41.

On to “s33581 (GTACTTATATGAACGTATT; chemistry not given here)”, for which the Score_si4 worked out at 1.43.

For the substance “Hs_ODZ3_4 (CACGAGGAAACTACAATTCCA; chemistry not given here)”, the Score_si3 worked out at 1. In the case of “s16633 (CAACCACAATGTTCGTAAA; chemistry not given here)”, the Score_si3 was 1.99. With “s17302 (GCTCCTTTAGGTTATGATA; chemistry not given here)”, the Score_si4 is on record as -0.05. “Hs_NCOA1_14 (CTCCTAATATTTCGACATTAA; chemistry not given here)” registered a Score_si1 of 2.06. As to “Hs_GP1BB_4 (sense CGAGCTGGTGCTGACCGGCAA; chemistry not given here) [reference compound]”, the Score_si3 is on record as -0.68. With “Hs_PTPN6_5 (sense CCGGAACAAATGCGTCCCATA; chemistry not given here)”, the Score_si4 turned out to be 1.05. “Hs_RPS6KC1_3 (sense ACCCTGATGCTGTATAATGTA; chemistry not given here) [reference compound]”: the Score_si1 was -2.87. The same measure, in the same setting: the result for “Hs_RAB3D_1 (sense CAGGCCCTGTTTAGCTGTTTA; chemistry not given here)” reads 1.76. Take “s18908 (sense GCAGATCACATGAAGAGAA; chemistry not given here)”: the Score_si2 was 1.75.

As to “s25485 (sense ACTTCCTGTTGGTCTACAA; chemistry not given here)”, the Score_si3 was determined as 1.19. Consider “Hs_RTN2_1 (sense TTGGATTTACACTGTAATAAA; chemistry not given here)”, for which the Score_si4 is reported as 0.49.
